Patent publication US20040101503A1, “Use of protectin activator to enhance the skin's resistance, composition comprising such activators and selection method” (SOCIETE L'OREAL S.A., priority 2002, published 2004)

Test system: messenger RNAs coding for the protein CD59
Assay: cDNA array of CD59 mRNA on standard human dermal fibroblasts
Assay type: cell-based
Details: for Comparision of the Control Population with the Population Exposed to the Extract (in %) / Fibroblasts Exposed to the Extract (RE): 15 micrograms/ml; for Comparision of the Control Population with the Population Exposed to the Extract (in %): control = 100; for Fibroblasts Exposed to the Extract (RE): control fibroblasts 6.1 RE
Method: The methodology used is that recommended by Clontech (Palo Alto, USA). […] The total RNA solutions were treated with DNAse I in order to remove any trace of contaminant DNA, in accordance with the supplier's recommendations. The quality of the RNA was then verified on agarose gel and the RNA solutions were adjusted to 1 μg/ml.
The next step was the purification of the messenger RNAs (mRNA) by hybridization of the poly(A) ends of the mRNAs using biotinylated oligo(dT) primers and selective capture on streptavidin beads, in accordance with the Atlaspure protocol (Clontech). ^33P-labeled DNA probes were produced by reverse transcription of the niRNAs bound to poly(dT) beads, using a pool of specific primers of the immobilized sequences on membranes (arrays), in the presence of (α^33P)-dATP. This step used the reagents and the protocol recommended by Clontech. The labeled probes were purified by chromatography on an exclusion column, and the quality and equivalence of the labeled probes was evaluated by liquid scintillation counting.
cDNA array membranes were pretreated and then the cDNAs immobilized on each membrane were hybridized (68° C., overnight) with the corresponding labeled probes. The filters were subsequently washed and placed in individual plastic bags for analysis. Analysis took place by direct quantification of the radioactivity of the spots using a Cyclone phosphoimager (Packard). The results were expressed in relative expression units (RE, radioactivity of the spot corresponding to each gene, corrected for the background noise and for the differences in intensity of labeling of the probes).
The study was carried out on standard human fibroblasts. Dermal fibroblasts were cultivated in DMEM (Life Technology, ref. 21969035) containing L-glutamine (2 mM, Life Technology, ref. 25030024), 50 IU/ml penicillin and 50 μg/ml streptomycin (Life Technology, ref. 15070063) and 1% foetal calf serum (v/v, Life Technology, ref. 10106151).
A fraction of a root extract of Panax notoginseng (San Qi) containing only the saponins was tested for its activity in accordance with the protocol described in the foregoing example by the technique of cDNA array on fibroblasts. The two principal saponins from the extract were also tested.
All the products were tested at a final concentration of 15 micrograms/ml

Structure (SMILES) | effect on expression of messenger RNAs coding for the protein CD59 (in words) | Comparision of the Control Population with the Population Exposed to the Extract (in %) [%] | Fibroblasts Exposed to the Extract (RE)
CC(C)=CCC[C@](C)(O[C@@H]1O[C@H](CO[C@@H]2O[C@H](CO)[C@@H](O)[C@H](O)[C@H]2O)[C@@H](O)[C@H](O)[C@H]1O)[C@H]1CC[C@]2(C)[C@@H]1[C@H](O)C[C@@H]1[C@@]3(C)CC[C@H](O[C@@H]4O[C@H](CO)[C@@H](O)[C@H](O)[C@H]4O[C@@H]4O[C@H](CO)[C@@H](O)[C@H](O)[C@H]4O)C(C)(C)[C@@H]3CC[C@]12C [Rb1, Rb1 ginsenoside] | significantly modify | 277 | 13.8
CC(C)=CCC[C@](C)(O[C@@H]1O[C@H](CO)[C@@H](O)[C@H](O)[C@H]1O)[C@H]1CC[C@]2(C)[C@@H]1[C@H](O)C[C@@H]1[C@@]3(C)CC[C@H](O)C(C)(C)[C@@H]3[C@@H](O[C@@H]3O[C@H](CO)[C@@H](O)[C@H](O)[C@H]3O)C[C@]12C [Rg1, Rg1 ginsenoside] | significantly modify | 277 | 16.8
